{"source": "patent US20060079573A1", "about": "“Methods and compositions for preventing vasospasm” (priority 2004, published 2006)", "key": {"[1]": {"system": "canine brachial arteries", "experiment": "Endothelial-independent smooth muscle relaxation to SNP after U46 pre-constriction", "type": "cell-based", "settings": "48 h after 1 mM WT; lower SNP concentrations (≦0.5 μM); pre-constricted with 3 μM U46; controls 87.49±2.91%", "protocol": "Cardiovasc. Surg., 126:179-85; van Son et al. (1992) Detrimental sequelae on the wall of the internal mammary artery caused by hydrostatic dilation with diluted papaverine solution, J. Thorac. Cardiovasc. Surg., 104:972-6]. Therefore, to test the vasorelaxation capacity of the vessels after treatment with WT, the vessels were pre-constricted with 3 μM U46, and then exposed to incrementally increasing concentrations (50 nM to […]) of SNP, a direct smooth muscle dilator.\nThe capacity of the vascular smooth muscle to relax independently of the endothelium was evaluated by pre-constricting vessels with U46, followed by exposure to incrementally increasing concentrations of SNP, a direct smooth muscle relaxing agent. […] Two hours after soaking, control vessels relaxed 99.04±7.30% from their pre-constricted state in response to SNP."}, "[2]": {"system": "canine brachial arteries", "experiment": "Histologic evaluation (H and E) of vessels for morphologic injury", "type": "cell-based", "settings": "48 h after 1 mM WT treatment and incubation", "protocol": "Prolonged storage in cell culture environments has the potential to cause cellular injury, which might impair smooth muscle function. To confirm that the lack of the observed contraction in WT-treated vessels was not a function of cellular damage, a subset of vessels was tested for histological signs of injury and apoptosis after treatment with WT and incubation for 48 h. For histology, formalin-fixed vessels were embedded in paraffin blocks, cut into sections for slide preparation, and stained with hematoxylin and eosin (H and E) prior to examination for signs of morphologic damage."}, "[3]": {"system": "canine brachial arteries", "experiment": "TUNEL assay of endothelial and smooth muscle cell apoptosis in vessels", "type": "cell-based", "protocol": "Endothelial and smooth muscle cell apoptosis was evaluated using the terminal deoxynucleotidyl transferase (TdT)-mediated dUTP nick end labeling (TUNEL) method. In preparation for the TUNEL assay, the vessels were embedded in optimal cutting temperature compound (OCT, Sakura Finetek, Torrance, Calif.). Cryosections from frozen tissue were obtained using a Hacker-Bright cryostat and thaw-mounted onto Fisher-Plus slides (Fisher Scientific). Determination of apoptosis was performed using an in situ cell death detection kit (Roche Applied Science, Indianapolis, Ind.). DNA strand breaks were labeled with fluorescein-dUTP, followed by the addition of a secondary, antifluorescein antibody conjugated with alkaline phosphatase, a converter which generates a red color from Vector Red substrate. Folio wing counterstaining with hematoxylin and dehydration in graded alcohols, the number of apoptotic cells (indicated by red-stained nuclei) per high power field (HPF) was counted under light microscopy and is expressed as a percentage of the total number of nuclei per HPF."}, "[4]": {"system": "canine brachial arteries", "experiment": "Contractile function of artery segments in organ chambers after WT soak", "type": "cell-based", "settings": "for force of contraction in response to 5HT: 1 μM 5-HT; for force of contraction in response to NE: 1 μM NE; for force of contraction in response to U46: 3 μM U46619; for force of contraction in response to KCl: 60 mM KCl", "from_the_text": "Canine brachial arteries, equivalents of radial arteries in humans, were used in this study since they were more readily available and we could obtain longer segments than human radial arteries. Based on previous publications, it has been determined that the contractile and relaxation properties of these canine vessels are similar to the properties of human radial arteries in organ chamber studies [Corvera et al. (2003) Pretreatment with phenoxybenzamine attenuates the radial artery's vasoconstrictor response to α-adrenergic stimuli, J. Thorac. Cardiovasc. Surg., 126:1549-54; Velez et al., 2001]. The arteries were harvested as a pedicle graft and stored in 4° C. KH buffer (in mM/1: glucose 11; magnesium sulfate, 1.2; potassium phosphate 1.2; KCl, 4.7; sodium chloride 118; calcium chloride, 2.5) at pH 7.4 until ready for use.\nThe vessels were carefully skeletonized, cut into 4-5 mm segments, and soaked in a 1 mM solution of WT in KH buffer and 10% DMSO (used to increase solubility of WT), pH 7.4 at 37° C. for 60 min. Control vessels were soaked in KH buffer with 10% DMSO only. The vessels were then rinsed well with KH to remove all unbound drug. For testing of contractile responses, the arterial segments were mounted on steel hooks in glass organ chambers (Radnoti Glass, Monrovia, Calif.) in KH buffer at pH 7.4 and 37° C., and continuously bubbled with a gas mixture of 95% O2 and 5% CO2. One steel hook was held stationary while the other was attached to a force transducer. Force generated by the vessels in response to various agonists was recorded using an analog-to-digital converter and SPECTRUM Cardiovascular Acquisition and Analysis software (Wake Forest University, Winston-Salem, N.C.). The vessel segments were allowed to stabilize at a baseline tension of 3 g for 60 min prior to testing the effect of various vasoconstrictor agents. During this time, the buffer was changed every 20 min. The total time from the end of WT treatment until contractile responses were tested was approximately 2 h. The contractile responses to 1 μM NE (α1 receptor-dependent, calcium-dependent), 1 μM 5-HT (serotonin receptor-dependent, calcium-independent), 3 μM U46 (thromboxane A2 receptor-dependent, calcium-independent), and 60 mM KCl (receptor-independent depolarizing agent) were then quantified. […] The order in which the constricting agents were administered was varied randomly in order to avoid the effects of one drug on another. […] The vessels were thoroughly washed and allowed to stabilize for 20 min between vasoconstrictor agents. The resting tension was adjusted to 3 g during each stabilization period.\nTo test the duration of MLCK inhibition by the 60 min pre-treatment with 1 mM WT, a subset of vessels were harvested and treated with WT as above, then incubated in drug-free sterile culture medium [Dulbecco's modified eagle medium (Sigma, St Louis Mo.), with 10% newborn calf serum (Gibco, Inc.) and 1% penicillin-streptomycin] under sterile conditions for 48 h in an incubator aerated with 95% O2 and 5% CO2. The culture medium was changed every 12 h during this time. At the end of the 48 h period, the vessels were removed, rinsed with KH buffer, and contractile responses were tested as described above."}, "[5]": {"system": "radial and internal mammary arteries", "settings": "cited from earlier work"}, "[6]": {"system": "radial artery", "settings": "cited from earlier work"}}, "data": [{"smiles": "COC[C@H]1OC(=O)c2coc3c2[C@@]1(C)C1=C(C3=O)[C@@H]2CCC(=O)[C@@]2(C)C[C@H]1OC(C)=O", "note": "[WT, Wortmannin]", "values": [{"measurement": "relaxation response to SNP from pre-constricted state", "setting": "[1]", "result": "76.01±2.60", "unit": "%"}, {"measurement": "microscopic evidence of injury, endothelium and elastic lamina (H and E)", "setting": "[2]", "result": "appeared normal"}, {"measurement": "microscopic evidence of injury, smooth muscle (H and E)", "setting": "[2]", "result": "minimal hypereosinophilic staining in the smooth muscle"}, {"measurement": "TUNEL-positive cells in the smooth muscle", "setting": "[3]; 48 h after WT treatment and incubation, control 0.35±0.16%", "result": "4.63±1.04", "unit": "%"}, {"measurement": "TUNEL-positive cells in the endothelium", "setting": "[3]; 48 h after WT treatment and incubation, control 4.47±2.90%, P=0.058", "result": "16.88%±4.90"}, {"measurement": "apoptotic nuclei in smooth muscle layer versus control", "setting": "[3]; FIG. 3, 400×", "result": "greater extent of apoptotic nuclei (black arrows) stained red by the TUNEL method in the smooth muscle layer of control vessels (A) as compared to WT-treated vessels"}, {"measurement": "apoptotic nuclei in endothelium versus control", "setting": "[3]; FIG. 4, 400×", "result": "greater extent of apoptotic nuclei (black arrows) stained red by the TUNEL method in the endothelium of control vessels (A) as compared to WT-treated vessels"}, {"measurement": "force of contraction in response to 5HT", "setting": "[4]; 2 h after 60 min soak in 1 mM WT, control 9.64±0.67 g", "result": "0.92 ± 0.35", "unit": "g"}, {"measurement": "force of contraction in response to 5HT", "setting": "[4]; 48 h incubation after 1 mM WT soak, control 12.42±0.70 g", "result": "4.67 ± 0.39", "unit": "g"}, {"measurement": "force of contraction in response to NE", "setting": "[4]; 2 h after 60 min soak in 1 mM WT, control 7.22±0.37 g", "result": "0.19 ± 0.07", "unit": "g"}, {"measurement": "force of contraction in response to NE", "setting": "[4]; 48 h incubation after 1 mM WT soak, control 6.95±0.47 g", "result": "2.36 ± 0.17", "unit": "g"}, {"measurement": "force of contraction in response to U46", "setting": "[4]; 2 h after 60 min soak in 1 mM WT, control 10.99±0.50 g", "result": "1.25 ± 0.17", "unit": "g"}, {"measurement": "force of contraction in response to U46", "setting": "[4]; 48 h incubation after 1 mM WT soak, control 9.29±0.74 g", "result": "5.42 ± 0.34", "unit": "g"}, {"measurement": "force of contraction in response to KCl", "setting": "[4]; 2 h after 60 min soak in 1 mM WT, control 15.00±0.48 g", "result": "1.98 ± 0.27", "unit": "g"}, {"measurement": "force of contraction in response to KCl", "setting": "[4]; 48 h incubation after 1 mM WT soak, control 13.32±0.60 g", "result": "7.49 ± 0.48", "unit": "g"}, {"measurement": "contractile activity regained", "setting": "[4]; 48 h after treatment", "result": "about 50%"}, {"measurement": "reduction of contractile responses / vasoconstriction", "setting": "[4]; at 48 h following washout", "result": 50, "unit": "%"}]}, {"smiles": "COc1ccc(Cc2nccc3cc(OC)c(OC)cc23)cc1OC", "note": "[papaverine]", "values": [{"measurement": "effect on endothelium (in words)", "setting": "[5]", "result": "causes both impairment of endothelial function and endothelial cell apoptosis"}, {"measurement": "effect on contraction after washout (in words)", "setting": "[6]; after the drug has been washed away", "result": "virtually no effect after the drug has been washed away"}]}, {"smiles": "CC(COc1ccccc1)N(CCCl)Cc1ccccc1", "note": "(centres unmarked) [phenoxybenzamine]", "values": [{"measurement": "prevention of alpha-agonist-induced contractions (in words)", "setting": "[6]; 48 h following treatment", "result": "effective in preventing alpha-agonist-induced contractions at 48 h following treatment"}]}]}
